The text below walks through data of ChEMBL document CHEMBL1149521, “Synthesis of novel keto-ACE analogues as domain-selective angiotensin I-converting enzyme inhibitors” (Bioorg Med Chem Lett, 2006).

A short description of test [1]: Selectivity for rabbit testis ACE C domain over human ACE N domain.
Test [2] addresses T1, Angiotensin-converting enzyme (Oryctolagus cuniculus, UniProt P12822).
T1 sequence (P12822 whole entry): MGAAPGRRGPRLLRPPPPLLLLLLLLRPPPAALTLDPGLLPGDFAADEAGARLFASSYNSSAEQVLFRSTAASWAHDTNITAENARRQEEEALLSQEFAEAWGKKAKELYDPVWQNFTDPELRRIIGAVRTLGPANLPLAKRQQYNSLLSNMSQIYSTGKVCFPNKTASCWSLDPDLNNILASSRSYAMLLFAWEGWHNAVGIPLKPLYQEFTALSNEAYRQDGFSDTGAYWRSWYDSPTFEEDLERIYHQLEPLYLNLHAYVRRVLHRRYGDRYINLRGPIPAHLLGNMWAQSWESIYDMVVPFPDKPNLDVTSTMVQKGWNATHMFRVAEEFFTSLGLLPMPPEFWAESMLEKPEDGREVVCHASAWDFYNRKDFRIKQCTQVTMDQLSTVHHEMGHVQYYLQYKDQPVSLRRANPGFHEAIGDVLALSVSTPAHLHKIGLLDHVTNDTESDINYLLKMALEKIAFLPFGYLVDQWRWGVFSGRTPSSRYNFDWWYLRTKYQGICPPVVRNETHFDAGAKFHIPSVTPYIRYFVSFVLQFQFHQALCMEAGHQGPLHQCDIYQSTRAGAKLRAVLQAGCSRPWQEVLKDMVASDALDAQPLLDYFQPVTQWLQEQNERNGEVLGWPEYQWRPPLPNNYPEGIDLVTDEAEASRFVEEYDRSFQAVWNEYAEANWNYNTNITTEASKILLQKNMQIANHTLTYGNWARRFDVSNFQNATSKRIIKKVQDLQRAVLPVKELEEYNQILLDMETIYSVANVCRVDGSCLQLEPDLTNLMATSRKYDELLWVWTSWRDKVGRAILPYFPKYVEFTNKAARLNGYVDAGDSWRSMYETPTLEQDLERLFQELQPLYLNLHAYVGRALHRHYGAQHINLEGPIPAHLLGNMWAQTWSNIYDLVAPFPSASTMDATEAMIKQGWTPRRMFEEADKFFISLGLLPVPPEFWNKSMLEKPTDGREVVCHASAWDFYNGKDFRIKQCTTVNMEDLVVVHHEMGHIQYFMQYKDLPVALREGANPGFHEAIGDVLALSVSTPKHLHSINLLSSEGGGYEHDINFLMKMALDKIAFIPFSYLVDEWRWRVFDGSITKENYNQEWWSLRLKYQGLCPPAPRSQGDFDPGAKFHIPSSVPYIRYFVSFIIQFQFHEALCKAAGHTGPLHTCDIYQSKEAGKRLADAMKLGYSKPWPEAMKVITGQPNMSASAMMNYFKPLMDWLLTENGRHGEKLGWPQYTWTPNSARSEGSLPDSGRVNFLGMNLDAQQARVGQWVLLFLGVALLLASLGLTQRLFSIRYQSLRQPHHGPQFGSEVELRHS
In words: Inhibition of rabbit testis recombinant ACE C domain.

Test [3] addresses Angiotensin-converting enzyme (Homo sapiens, UniProt P12821). In words: Inhibition of recombinant ACE N domain.

Sequence of Angiotensin-converting enzyme (Homo sapiens, UniProt P12821) (P12821 whole entry): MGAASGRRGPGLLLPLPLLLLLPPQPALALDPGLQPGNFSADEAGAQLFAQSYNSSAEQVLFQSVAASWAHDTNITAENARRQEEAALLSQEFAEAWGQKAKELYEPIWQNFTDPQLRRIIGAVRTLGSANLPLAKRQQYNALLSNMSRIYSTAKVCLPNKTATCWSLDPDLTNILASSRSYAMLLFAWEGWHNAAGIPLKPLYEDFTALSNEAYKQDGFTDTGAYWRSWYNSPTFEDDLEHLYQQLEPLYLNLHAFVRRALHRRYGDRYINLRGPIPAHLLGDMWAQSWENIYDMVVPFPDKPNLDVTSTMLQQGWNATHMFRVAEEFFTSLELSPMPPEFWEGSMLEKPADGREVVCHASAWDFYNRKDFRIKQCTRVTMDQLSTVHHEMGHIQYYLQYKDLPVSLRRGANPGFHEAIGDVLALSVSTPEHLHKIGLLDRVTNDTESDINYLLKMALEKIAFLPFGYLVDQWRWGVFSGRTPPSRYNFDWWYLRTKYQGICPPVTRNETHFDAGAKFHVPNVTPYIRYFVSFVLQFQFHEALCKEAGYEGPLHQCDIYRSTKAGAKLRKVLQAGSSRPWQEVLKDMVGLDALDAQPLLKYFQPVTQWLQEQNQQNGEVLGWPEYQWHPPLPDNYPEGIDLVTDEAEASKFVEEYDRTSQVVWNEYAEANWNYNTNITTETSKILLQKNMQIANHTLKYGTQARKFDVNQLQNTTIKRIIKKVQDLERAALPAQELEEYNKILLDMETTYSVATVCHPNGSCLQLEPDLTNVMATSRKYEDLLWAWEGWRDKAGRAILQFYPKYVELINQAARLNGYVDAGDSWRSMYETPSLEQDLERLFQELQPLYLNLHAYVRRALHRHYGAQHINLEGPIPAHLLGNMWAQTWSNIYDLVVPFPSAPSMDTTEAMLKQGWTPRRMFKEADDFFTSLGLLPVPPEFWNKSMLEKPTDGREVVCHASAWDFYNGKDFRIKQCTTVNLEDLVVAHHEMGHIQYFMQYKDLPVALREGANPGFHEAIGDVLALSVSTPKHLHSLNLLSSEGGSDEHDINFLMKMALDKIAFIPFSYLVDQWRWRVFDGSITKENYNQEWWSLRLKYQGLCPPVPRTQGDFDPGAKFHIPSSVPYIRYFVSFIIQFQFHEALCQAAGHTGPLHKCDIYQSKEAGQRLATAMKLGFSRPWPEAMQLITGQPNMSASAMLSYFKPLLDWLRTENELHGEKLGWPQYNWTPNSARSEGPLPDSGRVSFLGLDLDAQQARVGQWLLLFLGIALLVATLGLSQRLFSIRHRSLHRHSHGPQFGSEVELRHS

Take `CC(C)(C)OC(=O)N[C@@H](Cc1ccccc1)C(=O)CCC(=O)N1CCC[C@H]1C(=O)O`: in test [1], the Ratio Ki stood at 0.2. Further, the Ki in test [2] is 144 µM.
For the compound `CC(C)(C)OC(=O)N[C@@H](Cc1ccccc1)C(=O)CCC(=O)N[C@@H](Cc1ccccc1)C(=O)O`, the Ratio Ki in test [1] worked out at 0.1. Further, the figures for the Ki in test [3] and in test [2] were 43 µM and 313 µM, respectively.
Consider `O=C(CCC(=O)[C@H](Cc1ccccc1)NC(=O)c1ccccc1)N[C@@H](Cc1ccccc1)C(=O)O`, for which the Ratio Ki in test [1] was 3.6. Besides, the Ki in test [2] worked out at 23.7 µM.
The corresponding values for `O=C(CCC(=O)[C@H](Cc1ccccc1)NC(=O)c1ccccc1)N[C@@H](Cc1c[nH]c2ccccc12)C(=O)O` are 245 and 0.8 µM.
Consider `CC(C)(C)OC(=O)N[C@@H](Cc1ccccc1)C(=O)CCC(=O)N[C@@H](Cc1c[nH]c2ccccc12)C(=O)O`, for which the Ratio Ki in test [1] turned out to be 0.04. Further, the Ki in test [3] was found to be 13.3 µM; in test [2] it was 381 µM.
Regarding `NCCCC[C@H](N[C@@H](CCc1ccccc1)C(=O)O)C(=O)N1CCC[C@H]1C(=O)O` [LISINOPRIL ANHYDROUS], in test [2], the Ki was 0.051 µM.

One may read the Ki as the equilibrium dissociation constant of an inhibitor or competing ligand from its target.
